In ChEMBL document CHEMBL1201862, “PubChem BioAssay data set” (2004):
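96-well plates; 48 h exposure; 5 concentrations. Endpoints by linear interpolation between flanking doses. Not reached: highest tested concentration assigned. GI50 = concentration required for 50% inhibition of growth.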 The source made the active and inactive calls. No stated cut-off is given here; in the data, active = GI50 up to about 1.1 µM and inactive = higher.

Tests used:
Experiment in all cases: inhibition of tumour cell growth, NCI panel, 48 h
[1] = tested on: SN12C
[2] = tested on: NCI-H460
[3] = tested on: BT-549
[4] = tested on: SW-620
[5] = tested on: HCT-116
[6] = tested on: CAKI-1
[7] = tested on: SNB-75
[8] = tested on: MDA-MB-231
[9] = tested on: HCC 2998
[10] = tested on: HCT-15
[11] = tested on: HT-29
[12] = tested on: EKVX
[13] = tested on: SK-OV-3
[14] = tested on: Malme-3M
[15] = tested on: SF-295
[16] = tested on: MOLT-4
[17] = tested on: M14
[18] = tested on: HL-60
[19] = tested on: MCF7
[20] = tested on: OVCAR-5

SMILES: COc1cc(OC)cc(-n2c(N)c(-c3nc4ccccc4n3C)c3ccc([N+](=O)[O-])cc3c2=O)c1
- GI50 [1]: 94.4 µM (inactive)
- GI50 [2]: > 100 µM (inactive)
- GI50 [3]: > 100 µM (inactive)
- GI50 [4]: > 100 µM (inactive)
- GI50 [5]: > 100 µM (inactive)
- GI50 [6]: > 100 µM (inactive)
- GI50 [7]: 2.02 µM (inactive)
- GI50 [8]: 80.5 µM (inactive)
- GI50 [9]: > 100 µM (inactive)
- GI50 [10]: > 100 µM
- GI50 [11]: > 100 µM (inactive)

SMILES: COc1ccc(C)cc1NC(=S)N/N=C/c1ccco1
- GI50 [1]: 45.3 µM (inactive)
- GI50 [12]: 16.7 µM (inactive)
- GI50 [13]: > 100 µM (inactive)
- GI50 [2]: 34.1 µM (inactive)
- GI50 [3]: 53.8 µM (inactive)
- GI50 [14]: 52.2 µM (inactive)
- GI50 [15]: 40.2 µM (inactive)
- GI50 [4]: 36.5 µM (inactive)
- GI50 [16]: 31.7 µM (inactive)
- GI50 [5]: 36.2 µM (inactive)
- GI50 [17]: 34.6 µM (inactive)
- GI50 [18]: 22 µM (inactive)
- GI50 [6]: 55.2 µM (inactive)
- GI50 [7]: 39.9 µM (inactive)
- GI50 [19]: 4.94 µM (inactive)
- GI50 [9]: 36.5 µM (inactive)
- GI50 [20]: > 100 µM (inactive)
- GI50 [10]: 34.2 µM
- GI50 [11]: 29 µM (inactive)

SMILES: COc1ccc(-n2cnn3c(=O)c4cn[nH]c4nc23)cc1
- GI50 [1]: > 10 µM (inactive)
- GI50 [12]: > 10 µM (inactive)
- GI50 [13]: 1.49 µM (inactive)
- GI50 [2]: > 10 µM (inactive)
- GI50 [3]: > 10 µM (inactive)
- GI50 [14]: > 10 µM (inactive)
- GI50 [15]: > 10 µM (inactive)
- GI50 [16]: > 10 µM (inactive)
- GI50 [5]: > 10 µM (inactive)
- GI50 [17]: > 10 µM (inactive)
- GI50 [18]: > 10 µM (inactive)
- GI50 [7]: > 10 µM (inactive)
- GI50 [8]: 0.00724 µM (active)
- GI50 [19]: > 10 µM (inactive)
- GI50 [9]: > 10 µM (inactive)
- GI50 [20]: > 10 µM (inactive)
- GI50 [11]: > 10 µM (inactive)

SMILES: COc1nc2ncc([C@@H](OC(C)=O)[C@@H](COC(C)=O)OC(C)=O)nc2c(=O)[nH]1
- GI50 [1]: > 100 µM (inactive)
- GI50 [12]: > 100 µM (inactive)
- GI50 [13]: > 100 µM (inactive)
- GI50 [2]: > 100 µM (inactive)
- GI50 [3]: > 100 µM (inactive)
- GI50 [14]: > 100 µM (inactive)
- GI50 [15]: > 100 µM (inactive)
- GI50 [4]: > 100 µM (inactive)
- GI50 [5]: > 100 µM (inactive)
- GI50 [17]: > 100 µM (inactive)
- GI50 [18]: > 100 µM (inactive)
- GI50 [6]: > 100 µM (inactive)
- GI50 [8]: > 100 µM (inactive)
- GI50 [19]: > 100 µM (inactive)
- GI50 [20]: > 100 µM (inactive)
- GI50 [10]: > 100 µM
- GI50 [11]: > 100 µM (inactive)

SMILES: CCNC12CCC(C1)C(C)(C)C2=O (centres undefined)
- GI50 [1]: > 100 µM (inactive)
- GI50 [12]: > 100 µM (inactive)
- GI50 [13]: > 100 µM (inactive)
- GI50 [2]: > 100 µM (inactive)
- GI50 [3]: > 100 µM (inactive)
- GI50 [15]: > 100 µM (inactive)
- GI50 [4]: > 100 µM (inactive)
- GI50 [16]: > 100 µM (inactive)
- GI50 [5]: > 100 µM (inactive)
- GI50 [17]: > 100 µM (inactive)
- GI50 [18]: > 100 µM (inactive)
- GI50 [6]: > 100 µM (inactive)
- GI50 [7]: > 100 µM (inactive)
- GI50 [19]: > 100 µM (inactive)
- GI50 [9]: > 100 µM (inactive)
- GI50 [20]: > 100 µM (inactive)
- GI50 [10]: > 100 µM

SMILES: CC1CC/C(=C\c2ccc(F)cc2)C2=C1C(c1ccc(F)cc1)N1C(=O)CSC1=N2 (centres undefined)
- GI50 [1]: > 100 µM (inactive)
- GI50 [12]: 17.7 µM (inactive)
- GI50 [13]: > 100 µM (inactive)
- GI50 [2]: 30.8 µM (inactive)
- GI50 [3]: > 100 µM (inactive)
- GI50 [14]: > 100 µM (inactive)
- GI50 [15]: 45.6 µM (inactive)
- GI50 [4]: > 100 µM (inactive)
- GI50 [16]: 6.55 µM (inactive)
- GI50 [5]: 50 µM (inactive)
- GI50 [17]: > 100 µM (inactive)
- GI50 [18]: 4.35 µM (inactive)
- GI50 [6]: > 100 µM (inactive)
- GI50 [8]: > 100 µM (inactive)
- GI50 [19]: 55.1 µM (inactive)
- GI50 [10]: 43.3 µM
- GI50 [11]: 23.2 µM (inactive)

SMILES: Nc1nc2cc(CNc3ccc(C(=O)O)cc3)ccc2nc1-c1ccccc1
- GI50 [1]: > 100 µM (inactive)
- GI50 [13]: > 100 µM (inactive)
- GI50 [2]: > 100 µM (inactive)
- GI50 [3]: > 100 µM (inactive)
- GI50 [14]: > 100 µM (inactive)
- GI50 [15]: > 100 µM (inactive)
- GI50 [4]: > 100 µM (inactive)
- GI50 [16]: 69.8 µM (inactive)
- GI50 [5]: 69.8 µM (inactive)
- GI50 [17]: > 100 µM (inactive)
- GI50 [18]: > 100 µM (inactive)
- GI50 [7]: 66.5 µM (inactive)
- GI50 [8]: > 100 µM (inactive)
- GI50 [19]: > 100 µM (inactive)
- GI50 [9]: > 100 µM (inactive)
- GI50 [20]: > 100 µM (inactive)
- GI50 [10]: > 100 µM
- GI50 [11]: > 100 µM (inactive)

SMILES: Nc1nc(N)c2c(Cl)c(CNc3ccc(Cl)c(Cl)c3)ccc2n1
- GI50 [1]: < 0.104 µM (active)
- GI50 [12]: 2.87 µM (inactive)
- GI50 [13]: 0.574 µM (active)
- GI50 [2]: < 0.01 µM (active)
- GI50 [3]: 4.49 µM (inactive)
- GI50 [14]: 0.471 µM (active)
- GI50 [15]: < 0.01 µM (active)
- GI50 [4]: < 0.01 µM (active)
- GI50 [16]: < 0.0536 µM (active)
- GI50 [5]: < 0.01 µM (active)
- GI50 [17]: < 0.01 µM (active)
- GI50 [18]: < 0.01 µM (active)
- GI50 [7]: 2.64 µM (inactive)
- GI50 [8]: 1.52 µM (inactive)
- GI50 [9]: 0.0146 µM (active)
- GI50 [20]: < 0.01 µM (active)
- GI50 [10]: < 0.01 µM
- GI50 [11]: < 0.01 µM (active)
